According to patent US5985900A, “Metalloproteinase inhibitors, pharmaceutical compositions containing them and their pharmaceutical uses” (Agouron Pharmaceuticals, Inc., priority 1998, dated 1999):

Columns and labels:
Format in all cases: biochemical
[1] = biological target: T1, human collagenase-3 (Coll3) (Homo sapiens, UniProt P45452); test: In vitro MMP inhibition assay (hydrolysis of fluorogenic MCA peptide substrate), collagenase-3; conditions: Table 1; Ki,app; MCA peptide substrate 10 μM, 37° C., pH 7.5, 2% DMSO
T1 construct: catalytic domain liberated with APMA
Description: The propeptide and catalytic domain of human collagenase-3 (Coll3) was expressed in E. coli as an N-terminal fusion protein with ubiquitin. After purification of the fusion from inclusion bodies, the catalytic domain was liberated by treatment with 2 mM APMA at room temperature overnight. Final purification was completed using copper chelate chromatography.
(§1) Assays were performed in assay buffer (50 mM Tricine pH 7.5, 200 mM sodium chloride, 10 mM calcium chloride, 0.5 mM zinc acetate containing 2% dimethyl sulfoxide (DMSO)) once the substrate and inhibitor were diluted into it. Stock solutions of inhibitors were prepared in 100% DMSO. Stock solutions of the substrate were prepared in 100% DMSO at a concentration of 6 mM.
(§2) The assay method was based on the hydrolysis of MCA-Pro-Leu-Gly-Leu-DPA-Ala-Arg-NH2 (American Peptide Co.) at 37° C. (see Knight, C. G. et al., FEBS, 1992, 296, 263-266). The fluorescence changes were monitored with a Perkin-Elmer LS-50B fluorimeter using an excitation wavelength of 328 nm and an emission wavelength of 393 nm. The substrate concentration used in the assays was 10 μM. The inhibitor was diluted into the assays from a solution in 100% DMSO, and controls substituted an equal volume of DMSO so that the final DMSO concentration from inhibitor and substrate dilution in all assays was 2%. […] Proper determination of steady-state rates of substrate cleavage required assay lengths of 60 minutes to allow for complete equilibration of the enzyme-inhibitor complex.
(§3) The Km for the MCA peptide substrate with the matrix metalloproteinases is quite high and exceeds its solubility under assay conditions. Consequently, the apparent Ki (Ki,app) was determined to describe the strength of inhibition. However, in this case, Ki,app would be essentially equal to Ki since [S]<<Km. For the determination of Ki,app, the concentration of the inhibitor was varied at a constant and low concentration of substrate and the steady-state rates of fluorescence change determined. In most cases absorptive quench due to the presence of ligand was not observed. For slow-binding inhibitors, onset of inhibition curves were collected for at least 45 minutes so that equilibrium was established. Steady-state rates of fluorescence change were obtained by fitting a curve to an equation for a single exponential decay containing a linear phase. The fitted value of the linear phase was taken as the steady-state rate. The steady-state rates were fitted to the Michaelis equation describing competitive inhibition by non-linear methods. Data resulting from tight-binding inhibition was analyzed, and Ki,app determined by fitting the data to the tight-binding equation of Morrison (Biochem. Biophys. Acta, vol. 185, pp. 269-286 (1969)) by non-linear methods.
(§4) All Ki values are in nM units.

human stromelysin (Sln) = human stromelysin (Sln) (Homo sapiens, UniProt P08254); test: In vitro MMP inhibition assay (hydrolysis of fluorogenic MCA peptide substrate), stromelysin; conditions: Table 1; Ki,app; MCA peptide substrate 10 μM, 37° C., pH 7.5, 2% DMSO; read-out: Sin Ki
Description: The catalytic domain of human stromelysin (Sln) was obtained by expression and purification of a C-terminally truncated prostromelysin-1 from E. coli host BL21 (see Marcy et al. Biochem., 1991, 30, 6476). The subsequent activation of the mature form (Sln) was completed with 2 mM APMA for 1 hour at 37° C., followed by separation using a sizing column.
as §1, §2, §3, §4

[2] = biological target: human progelatinase A (GelA) (Homo sapiens, UniProt P08253); test: In vitro MMP inhibition assay (hydrolysis of fluorogenic MCA peptide substrate), gelatinase A; conditions: Table 1; Ki,app; MCA peptide substrate 10 μM, 37° C., pH 7.5, 2% DMSO; read-out: Gel A
Description: The catalytic and fibronectin-like portion of human progelatinase A (GelA) was expressed as a fusion protein with ubiquitin in E. Coli. Assays were carried out on autocatalytically activated material.
as §1, §2, §3, §4

human progelatinase A (GelA), sequence (P08253 110-446 limits assumed): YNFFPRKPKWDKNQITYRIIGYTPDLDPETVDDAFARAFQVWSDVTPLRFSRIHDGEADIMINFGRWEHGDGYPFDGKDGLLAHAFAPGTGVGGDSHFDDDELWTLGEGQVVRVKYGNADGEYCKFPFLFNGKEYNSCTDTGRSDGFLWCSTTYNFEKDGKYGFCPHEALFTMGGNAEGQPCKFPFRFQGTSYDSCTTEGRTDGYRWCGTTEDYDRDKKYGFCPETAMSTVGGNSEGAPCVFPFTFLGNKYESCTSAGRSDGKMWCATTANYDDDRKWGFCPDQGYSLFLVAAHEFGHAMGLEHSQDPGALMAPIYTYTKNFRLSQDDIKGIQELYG
human stromelysin (Sln), sequence (P08254 100-272 limits assumed): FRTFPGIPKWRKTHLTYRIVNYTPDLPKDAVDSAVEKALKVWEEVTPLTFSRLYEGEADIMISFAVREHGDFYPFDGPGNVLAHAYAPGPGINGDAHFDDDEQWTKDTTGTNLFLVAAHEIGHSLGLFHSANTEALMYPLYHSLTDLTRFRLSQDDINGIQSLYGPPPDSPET

Ki [1] | Ki (human stromelysin (Sln)) | Ki [2] | SMILES
200 nM | 1300 nM | 11 nM | CC(C)(SCc1nccn1Cc1ccccc1)[C@@H](NS(=O)(=O)c1ccc(Oc2ccc(F)cc2)cc1)C(=O)O [Example 3a, S--[(1-Benzyl-1H-imidazol-2-yl)methyl]--N--[4-(4-fluorophenoxy)benzenesulfonyl]-D-penicillamine]
108 nM | 558 nM | 1.8 nM | CC(C)(SCc1nccn1Cc1ccccc1)[C@@H](NS(=O)(=O)c1ccc(Oc2ccc(Br)cc2)cc1)C(=O)O [Example 3b, N-[4-(4-Bromophenoxy)benzenesulfonyl]--S--[(1-benzyl-1H-imidazol-2-yl)methyl]-D-penicillamine]
110 nM | 2550 nM | 44 nM | CC(C)(SCc1ccccn1)[C@@H](NS(=O)(=O)c1ccc(Oc2ccc(F)cc2)cc1)C(=O)O [Example 3c, N-[4-(4-Fluorophenoxy)benzenesulfonyl]--S--[(pyrid-2-yl)methyl]-D-penicillamine]
1100 nM | 6900 nM | 517 nM | CC(C)(SCc1cccnc1)[C@@H](NS(=O)(=O)c1ccc(Oc2ccc(F)cc2)cc1)C(=O)O [Example 3e, N-[4-(4-Fluorophenoxy)benzenesulfonyl]--S--[(pyrid-3-yl)methyl]-D-penicillamine]
829 nM | 6300 nM | 311 nM | CC(C)(SCc1ccncc1)[C@@H](NS(=O)(=O)c1ccc(Oc2ccc(F)cc2)cc1)C(=O)O [Example 3f, N-[4-(4-Fluorophenoxy)benzenesulfonyl]--S--[(pyrid-4-yl)methyl]-D-penicillamine]
117 nM | 1310 nM | 10 nM | Cc1ccc(Oc2ccc(S(=O)(=O)N[C@@H](C(=O)O)C(C)(C)SCc3ccccn3)cc2)cc1 [Example 3g, N-[4-(4-Methylphenoxy)benzenesulfonyl]--S--[(pyrid-2-yl)methyl]-D-penicillamine]
258 nM | 8200 nM | 73 nM | CC(C)(SCc1ccccn1)[C@@H](NS(=O)(=O)c1ccc(Oc2ccc(C#N)cc2)cc1)C(=O)O [Example 3h, N-[4-(4-Cyanophenoxy)benzenesulfonyl]--S--[(pyrid-2-yl)methyl]-D-penicillamine]
196 nM | 1180 nM | 3.3 nM | CC(C)(SCc1ccccn1)[C@@H](NS(=O)(=O)c1ccc(Oc2ccc(I)cc2)cc1)C(=O)O [Example 3i, N-[4-(4-Iodophenoxy)benzenesulfonyl]--S--[(pyrid-2-yl)methyl]-D-penicillamine]
209 nM | 2600 nM | 4.2 nM | Cc1cc(CSC(C)(C)[C@@H](NS(=O)(=O)c2ccc(Oc3ccc(Br)cc3)cc2)C(=O)O)no1 [Example 3k, N-[4-(4-Bromophenoxy)benzenesulfonyl]--S--[(5-methylisoxazol-3-yl)-methyl]-D-penicillamine]
248 nM | 5100 nM | 35.3 nM | Cc1cc(CSC(C)(C)[C@@H](NS(=O)(=O)c2ccc(Oc3ccc(F)cc3)cc2)C(=O)O)no1 [Example 3l, N-[4-(4-Fluorophenoxy)benzenesulfonyl]--S--[(5-methylisoxazol-3-yl)methyl]-D-penicillamine]
907 nM | 1000 nM | 46 nM | CC(C)(SCc1ccccc1)[C@@H](NS(=O)(=O)c1ccc(Oc2ccccc2)cc1)C(=O)O [Example 3m, S-Benzyl--N--[4-phenoxybenzenesulfonyl]-D-penicillamine]
203 nM | 9500 nM | 62 nM | CC(C)(C)[C@@H](NS(=O)(=O)c1ccc(Oc2ccc(Cl)cc2)cc1)C(=O)O [Example 3p, N-[4-(4-Chlorophenoxy)benzenesulfonyl]-D-tert-leucine]
1180 nM | 14000 nM | 150 nM | CC(C)(C)[C@@H](NS(=O)(=O)c1ccc(Oc2ccc(F)cc2)cc1)C(=O)O [Example 3q, N-[4-(4-Fluorophenoxy)benzenesulfonyl]-D-tert-leucine]
616 nM | 12700 nM | 104 nM | CC(C)(C)[C@@H](NS(=O)(=O)c1ccc(Oc2ccccc2)cc1)C(=O)O [Example 3r, N-[4-Phenoxybenzenesulfonyl]-D-tert-leucine]
360 nM | 7700 nM | 193 nM | CC(C)(SCc1ccccc1)[C@@H](NS(=O)(=O)c1ccc(Oc2ccncc2)cc1)C(=O)O [Example 4a, S-Benzyl--N--[4-(pyrid-4-yl)oxybenzenesulfonyl]-D-penicillamine]
7000 nM | 97000 nM | 890 nM | Cc1cc(CSC(C)(C)[C@@H](NS(=O)(=O)c2ccc(Sc3ccncc3)cc2)C(=O)O)no1 [Example 4c, S--[(5-Methylisoxazol-3-yl)methyl]--N--[4(pyrid-4-yl)sulfanylbenzenesulfonyl]-D-penicillamine]
27000 nM | 274000 nM | 11000 nM | CC(C)(C)[C@@H](NS(=O)(=O)c1ccc(Oc2ccccn2)cc1)C(=O)O [Example 4d]
153 nM | 680 nM | 7.1 nM | CC(C)(SCc1ccccn1)[C@@H](NS(=O)(=O)c1ccc(Oc2ccc(-c3ccoc3)cc2)cc1)C(=O)O [Example 4e, N-[4-(4-(Furan-3-yl)phenoxy)benzenesulfonyl]--S--[(pyrid-2-yl)methyl]-D-penicillamine]
1620 nM | 27300 nM | 1550 nM | CC(C)(SCC(=O)O)[C@@H](NS(=O)(=O)c1ccc(Oc2ccc(F)cc2)cc1)C(=O)O [Example 5, S-Carboxymethyl--N--[4-(4-fluorophenoxy)benzenesulfonyl]-D-penicillamine]
661 nM | 4850 nM | 351 nM | CSC(C)(C)[C@@H](NS(=O)(=O)c1ccc(Oc2ccccc2)cc1)C(=O)O [Example 6a, S-Methyl--N--[4-(phenoxy)benzenesulfonyl]-D-penicillamine]
696 nM | 17000 nM | 215 nM | CSC(C)(C)[C@@H](NS(=O)(=O)c1ccc(Oc2ccc(Cl)cc2)cc1)C(=O)O [Example 6b, S-Methyl--N--[4-(4-chlorophenoxy)benzenesulfonyl]-D-penicillamine]
0.067 nM | 2.2 nM | 0.069 nM | CSC(C)(C)[C@@H](NS(=O)(=O)c1ccc(Oc2ccccc2)cc1)C(=O)NO [Example 9a, 2(S)--N--Hydroxy-3-methyl-3-methylsulfanyl-2-[(4-phenoxybenzenesulfonyl)amino]butanamide]
0.013 nM | 0.24 nM |  | Cc1cc(CSC(C)(C)[C@@H](NS(=O)(=O)c2ccc(Oc3ccc(Br)cc3)cc2)C(=O)NO)no1 [Example 9d, 2(S)--N-hydroxy-3-methyl-3-(5-methylisoxazol-3-yl)methylsulfanyl-2-[(4-(4-bromophenoxy)benzenesulfonyl)amino]butanamide]
0.015 nM | 0.29 nM |  | CC(C)(SCc1ccccn1)[C@@H](NS(=O)(=O)c1ccc(Oc2ccc(I)cc2)cc1)C(=O)NO [Example 9f, 2(S)--N-hydroxy-3-methyl-3-(pyrid-2-yl)methylsulfanyl-2-[(4-(4-iodophenoxy)benzenesulfonyl)amino]butanamide]

SMILES | Ki [1] | Ki (human stromelysin (Sln)) | Ki [2]
CC(C)(C)OC(=O)CSC(C)(C)[C@@H](NS(=O)(=O)c1ccc(Oc2ccc(F)cc2)cc1)C(=O)O [Example 3n, S--(t-Butoxycarbonyl)methyl--N--[4-(4-fluorophenoxy)benzenesulfonyl]-D-penicillamine] | 574 nM | 5700 nM | 183 nM
